Laboratory results from ChEMBL document CHEMBL4229403, “Protein Arginine Methyltransferase 5 (PRMT5) as an Anticancer Target and Its Inhibitor Discovery” (J Med Chem, 2018).

Key:
[1] = molecular target: T1, Protein arginine N-methyltransferase 5 (Homo sapiens, UniProt O14744); test: Inhibition of PRMT5 (unknown origin) using H4R3 as substrate by HTRF assay
[2] = Antiproliferative activity against human TH2 cells by trypan blue exclusion assay; format: functional, cell-based
[3] = Antiproliferative activity against human Th1 cells by trypan blue exclusion assay; format: functional, cell-based
[4] = Plasma concentration in iv dosed Sprague-Dawley rat administered as single dose; format: ADME, organism-based; conditions: in vivo
[5] = Plasma concentration in po dosed Sprague-Dawley rat administered as single dose; format: ADME, organism-based; conditions: in vivo
[6] = molecular target: T1, Protein arginine N-methyltransferase 5; test: Inhibition of human 6xHis-tagged PRMT5 expressed in bacterial expression system using histone H2A as substrate after 2 hrs in presence of by S-[methyl-3H]adenosylmethionine by liquid scintillation counting
[7] = molecular target: PRMT5/MEP50 complex (Homo sapiens) (UniProt O14744+Q9BQA1); test: (§1) Inhibition of human N-terminal FLAG-tagged PRMT5 (2 to end)/human N-terminal His-tagged MEP50 (2 to end) expressed in HEK293 cells at 50 uM using biotinylated H4 derived peptide as substrate preincubated for 15 mins followed by substrate addition measured after 60 mins ibn presence of [3H]SAM by liquid scintillation counting
[8] = molecular target: T1, Protein arginine N-methyltransferase 5; test: Inhibition of human PRMT5 expressed in insect cells co-expressing His-tagged MEP50 using Ser-Gly-Arg-Gly- Lys-Gly-Gly-Lys-Gly-Leu-Gly-Lys-Gly-Gly-Ala-Lys-Arg-His-Arg-Lys-Val-NH2 peptide as substrate after 4 hrs in presence of SAM by Transcreene EPIGEN methyltransferase assays
[9] = system: Z-138; test: Antitumor activity against human Z138 cells xenografted in SCID mouse assessed as tumor growth inhibition at 200 mg/kg, po BID administered for 21 days; format: functional; conditions: Z-138, po, 504 h, read-out: TGI
[10] = Plasma clearance in mouse at 2 mg/kg, iv; format: ADME, organism-based
[11] = Volume of distribution in mouse at 2 mg/kg, iv; format: ADME, organism-based; conditions: in vivo
[12] = Oral bioavailability in mouse at 10 mg/kg; format: ADME, organism-based; conditions: in vivo
[13] = system: Maver1; test: Antitumor activity against human Maver1 cells xenografted in SCID mouse assessed as tumor growth inhibition at 200 mg/kg, po BID administered for 21 days; format: functional; conditions: 504 h, read-out: TGI
[14] = molecular target: T1, Protein arginine N-methyltransferase 5; test: Inhibition of PRMT5 (unknown origin) at 50 uM by radioactive methylation assay
[15] = molecular target: PRMT5/MEP50 complex (Homo sapiens, UniProt O14744); test: as §1, with “cells” for “cells at 50 uM”, “in” for “ibn”; format: cell-based
Sequence of PRMT5/MEP50 complex (O14744 whole entry): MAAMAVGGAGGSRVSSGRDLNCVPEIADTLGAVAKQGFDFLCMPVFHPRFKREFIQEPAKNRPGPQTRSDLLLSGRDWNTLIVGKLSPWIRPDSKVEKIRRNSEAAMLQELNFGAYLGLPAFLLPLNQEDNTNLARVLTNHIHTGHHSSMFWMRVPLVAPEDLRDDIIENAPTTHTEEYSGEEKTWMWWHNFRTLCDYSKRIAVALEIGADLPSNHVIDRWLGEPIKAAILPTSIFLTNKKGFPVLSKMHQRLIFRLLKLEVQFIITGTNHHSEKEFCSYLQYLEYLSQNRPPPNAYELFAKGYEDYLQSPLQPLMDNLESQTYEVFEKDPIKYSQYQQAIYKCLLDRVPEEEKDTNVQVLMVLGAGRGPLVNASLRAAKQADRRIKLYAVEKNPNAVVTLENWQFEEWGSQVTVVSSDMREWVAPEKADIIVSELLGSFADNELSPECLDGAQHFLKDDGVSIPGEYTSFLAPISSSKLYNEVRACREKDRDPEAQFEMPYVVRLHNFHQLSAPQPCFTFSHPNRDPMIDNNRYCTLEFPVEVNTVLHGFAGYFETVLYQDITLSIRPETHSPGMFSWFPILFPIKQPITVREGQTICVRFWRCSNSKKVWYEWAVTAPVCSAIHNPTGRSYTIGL
Sequence of PRMT5/MEP50 complex (Q9BQA1 whole entry, further chain): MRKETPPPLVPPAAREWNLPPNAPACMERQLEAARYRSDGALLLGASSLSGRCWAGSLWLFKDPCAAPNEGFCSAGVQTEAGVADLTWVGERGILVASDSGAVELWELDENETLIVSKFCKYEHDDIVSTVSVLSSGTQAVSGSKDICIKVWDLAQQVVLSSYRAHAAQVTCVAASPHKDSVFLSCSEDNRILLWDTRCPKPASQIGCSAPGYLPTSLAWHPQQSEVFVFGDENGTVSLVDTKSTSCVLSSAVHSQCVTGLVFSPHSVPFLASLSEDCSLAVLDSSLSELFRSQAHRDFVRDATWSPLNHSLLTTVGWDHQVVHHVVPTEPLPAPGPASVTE

[16] = system: JeKo-1; test: Antiproliferative activity against human JeKo1 cells after 3 days by cell titer-glo luminescent cell viability assays; format: functional, cell-based; conditions: JeKo-1, 72 h
[17] = system: Z-138; test: Antiproliferative activity against human Z138 cells after 3 days by cell titer-glo luminescent cell viability assays; format: functional, cell-based; conditions: Z-138, 72 h
[18] = system: Maver1; test: Antiproliferative activity against human Maver1 cells after 3 days by cell titer-glo luminescent cell viability assays; format: functional, cell-based; conditions: Maver1, 72 h

T1 sequence (O14744 whole entry): as the sequence (O14744 whole entry) above

Compound: O=C(NC[C@H](O)CN1CCCCC1)c1cc(NC2COC2)ncn1
- IC50 [1]: > 10 µM

Compound: CCn1c2ccc(Br)cc2c2cc(CNCc3ccccc3OC)ccc21
- IC50 [2]: 4 µM
- IC50 [3]: 1100 nM

Compound: CCn1c2ccccc2c2cc(CNC3CCCc4ccccc43)ccc21 (stereo not given)
- concentration [4]: 7.88 µM
- concentration [5]: 3.57 µM
- IC50 [6]: 517 nM

Compound: OCCNCc1cccc2ccccc12
- inhibition [7]: 2%

Compound: CC(=O)N1CCC(Oc2nccc(C(=O)NC[C@@H](O)CNC3Cc4ccccc4C3)c2Cl)CC1
- IC50 [8]: 105 nM

Compound: O=C(NC[C@H](O)CN1CCc2ccccc2C1)c1cc(NC2COC2)ncn1
- inhibition in vivo at 200 mg/kg [9]: > 93%
- clearance [10]: 30 mL/min/kg
- Vd [11]: 1.7 L/kg
- bioavailability [12]: 69%
- inhibition in vivo at 200 mg/kg [13]: > 93%

Compound: CCn1c2ccccc2c2cc(CNCc3ccccn3)ccc21
- inhibition [14]: 7.8%

Compound: OCCNCc1c(OCc2ccc(Cl)cc2)ccc2ccccc12
- inhibition [7]: 69%
- IC50 [15]: 35.6 µM

Compound: O=C(NC[C@H](O)CN1CCc2ccccc2C1)c1ccc(C(=O)N2CCOCC2)cc1
- IC50 [8]: 109 nM

Compound: OC(CNCc1c(OCc2ccccc2)ccc2ccccc12)c1ccccc1 (stereo not given)
- EC50 [16]: 10.5 µM
- EC50 [17]: 12.7 µM
- EC50 [18]: 12.7 µM
